Laboratory results published in article PMC8616928, “Versatile selective evolutionary pressure using synthetic defect in universal metabolism” (Nature Communications, 2021).
Numbering of substitutions follows the chain as printed. Names and notes keep the numbering of the source. Each block holds one molecule with its values, some of them ahead of it.

Columns and labels:
MsIRED [1] = biological target: T1, MsIRED (Myxococcus stipitatus, UniProt L7U9F5, N32E/R33Y/T34E/K37R/L67I/T71V); experiment: NADH absorbance, initial rates, Michaelis-Menten with substrate inhibition; type: biochemical; details: NADH saturating, pH 7.4, 37 °C; substrate inhibition constant
T1 construct: gene MYSTI_01767
T1 sequence (L7U9F5 entry or part of it N32E/R33Y/T34E/K37R/L67I/T71V): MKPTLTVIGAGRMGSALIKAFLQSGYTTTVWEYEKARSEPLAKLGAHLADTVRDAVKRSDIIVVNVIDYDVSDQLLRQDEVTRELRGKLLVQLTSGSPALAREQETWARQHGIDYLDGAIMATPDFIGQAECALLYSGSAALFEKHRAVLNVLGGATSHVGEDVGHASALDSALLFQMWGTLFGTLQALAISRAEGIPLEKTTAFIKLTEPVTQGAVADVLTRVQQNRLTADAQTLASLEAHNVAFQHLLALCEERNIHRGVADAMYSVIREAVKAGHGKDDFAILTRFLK

MsIRED [2] = biological target: T2, MsIRED (Myxococcus stipitatus, UniProt L7U9F5, N32D/R33V/T34R/K37R); experiment: as above; type: biochemical; details: NADH saturating, pH 7.4, 37 °C; substrate inhibition constant
T2 construct: gene MYSTI_01767

TADH = biological target: T3, TADH (Thermus sp. ATN1, UniProt B2ZRE3); experiment: anaerobic growth rescue of E. coli AL and 1H-NMR of broth; type: cell-based; details: whole cells, NADH regenerated by glycolysis
T3 construct: full length, untagged, expressed from pUC19 in E. coli strain AL
T3 sequence (B2ZRE3 1-347): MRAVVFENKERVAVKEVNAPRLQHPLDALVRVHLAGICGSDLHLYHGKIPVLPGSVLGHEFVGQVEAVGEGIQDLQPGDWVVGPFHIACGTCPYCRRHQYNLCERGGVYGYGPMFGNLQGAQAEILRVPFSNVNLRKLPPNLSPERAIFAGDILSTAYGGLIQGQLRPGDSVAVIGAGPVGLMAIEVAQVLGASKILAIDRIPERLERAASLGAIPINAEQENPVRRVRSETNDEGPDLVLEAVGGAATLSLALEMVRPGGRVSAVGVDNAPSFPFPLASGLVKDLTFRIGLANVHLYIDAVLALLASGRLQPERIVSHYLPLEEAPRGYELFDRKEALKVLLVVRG

EntNfsB [3] = biological target: T4, EntNfsB (Enterobacter cloacae, UniProt Q01234); experiment: NADH absorbance, initial rates, anaerobic; type: biochemical; details: pH 7.4, 37 °C, activity too low for kinetic parameters
T4 construct: gene nfsB; full length, C-terminal His6 (pUC19), E. coli BL21(DE3), FMN holoprotein
T4 sequence (Q01234 1-217): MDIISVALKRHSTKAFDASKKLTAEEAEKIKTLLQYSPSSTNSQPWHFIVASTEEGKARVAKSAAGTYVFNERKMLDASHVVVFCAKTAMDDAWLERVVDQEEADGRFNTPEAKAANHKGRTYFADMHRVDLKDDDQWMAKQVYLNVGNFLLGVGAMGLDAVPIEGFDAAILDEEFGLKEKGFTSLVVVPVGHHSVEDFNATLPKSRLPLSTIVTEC

EntNfsB [4] = biological target: T5, EntNfsB (Enterobacter cloacae, UniProt Q01234, T41L/Y68L/F124L); details: pH 7.4, 37 °C, saturating cofactor, anaerobic
T5 construct: gene nfsB

BUDC = biological target: T6, BUDC (Klebsiella pneumoniae, UniProt Q48436); experiment: anaerobic growth rescue of E. coli AL and 1H-NMR of broth; type: cell-based; details: whole cells; endogenous acetoin reductase background
T6 construct: full length, untagged, expressed from pUC19 in E. coli strain AL
T6 sequence (Q48436 whole entry): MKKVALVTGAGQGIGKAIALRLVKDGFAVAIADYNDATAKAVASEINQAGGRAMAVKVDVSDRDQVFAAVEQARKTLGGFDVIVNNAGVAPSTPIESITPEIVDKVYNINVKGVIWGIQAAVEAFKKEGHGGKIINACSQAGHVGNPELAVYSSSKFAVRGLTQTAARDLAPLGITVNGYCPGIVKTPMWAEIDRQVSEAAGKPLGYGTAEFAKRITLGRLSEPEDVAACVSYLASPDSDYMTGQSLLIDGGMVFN

BDHA = biological target: T7, BDHA (Bacillus subtilis, UniProt O34788); experiment: as above; type: cell-based; details: whole cells; endogenous acetoin reductase background
T7 construct: full length, untagged, expressed from pUC19 in E. coli strain AL
T7 sequence (O34788 1-346): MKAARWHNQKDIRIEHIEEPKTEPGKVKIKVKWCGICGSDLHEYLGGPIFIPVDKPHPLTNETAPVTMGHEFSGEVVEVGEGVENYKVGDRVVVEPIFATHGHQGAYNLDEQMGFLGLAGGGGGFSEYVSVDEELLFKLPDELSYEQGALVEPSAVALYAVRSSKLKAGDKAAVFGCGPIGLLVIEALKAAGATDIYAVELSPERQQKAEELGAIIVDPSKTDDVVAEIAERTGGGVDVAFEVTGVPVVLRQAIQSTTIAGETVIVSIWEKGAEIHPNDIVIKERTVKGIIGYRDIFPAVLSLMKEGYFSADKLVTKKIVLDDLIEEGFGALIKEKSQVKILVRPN

CBADH = biological target: T8, CBADH (Clostridium beijerinckii, UniProt P25984); experiment: NAD(P)H absorbance, initial rates; type: biochemical; details: NADP+, pH 8.8, 37 °C
T8 construct: gene adh
T8 sequence (P25984 1-351): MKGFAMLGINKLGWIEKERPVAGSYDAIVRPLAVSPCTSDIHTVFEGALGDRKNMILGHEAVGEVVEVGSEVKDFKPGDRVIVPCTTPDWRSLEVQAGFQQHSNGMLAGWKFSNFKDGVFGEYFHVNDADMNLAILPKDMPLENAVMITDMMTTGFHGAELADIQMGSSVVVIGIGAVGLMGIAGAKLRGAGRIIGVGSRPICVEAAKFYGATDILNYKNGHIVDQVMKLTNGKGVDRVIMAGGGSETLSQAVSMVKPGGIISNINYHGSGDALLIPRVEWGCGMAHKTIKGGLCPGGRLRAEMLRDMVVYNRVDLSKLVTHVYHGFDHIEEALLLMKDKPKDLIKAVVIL

[5] = substrate: CC1=NCCC1; experiment: NADH absorbance, initial rates, Michaelis-Menten with substrate inhibition; type: biochemical, Myxococcus stipitatus; details: NADH saturating, pH 7.4, 37 °C
[6] = substrate: O=C(O)c1ccc([N+](=O)[O-])cc1; experiment: NADH absorbance, initial rates, anaerobic, Michaelis-Menten fit; type: biochemical, Enterobacter cloacae; details: pH 7.4, 37 °C, saturating cofactor

Ki (MsIRED [1]): 4.94 mM
Ki (MsIRED [2]): 11.42 mM
Molecule: CC1=NCCC1 [2-methyl-1-pyrroline]

Molecule: CC1CCCC(=O)C1 (stereo not drawn) [3-methylcyclohexanone]
anaerobic growth rescue of E. coli AL and 1H-NMR of broth (TADH): acetoin for BDHA and BUDC, and cyclohexanone or 3-methylcyclohexanone for TADH

Molecule: O=[N+]([O-])c1ccc(CO)cc1 [4-nitrobenzyl alcohol]
NADH absorbance, initial rates, anaerobic (EntNfsB [3]): it was able to reduce 4-NBA and 4-NBALC but not 2-NBA
Km (EntNfsB [4]): 1110 µM

Molecule: CC(=O)C(C)O (stereo not drawn) [acetoin]
anaerobic growth rescue of E. coli AL and 1H-NMR of broth (BUDC): acetoin for BDHA and BUDC, and cyclohexanone or 3-methylcyclohexanone for TADH
anaerobic growth rescue of E. coli AL and 1H-NMR of broth (BDHA): acetoin for BDHA and BUDC, and cyclohexanone or 3-methylcyclohexanone for TADH

Molecule: O=C1CCCCC1 [cyclohexanone]
anaerobic growth rescue of E. coli AL and 1H-NMR of broth (TADH): acetoin for BDHA and BUDC, and cyclohexanone or 3-methylcyclohexanone for TADH

Molecule: CC(C)O [isopropanol]
NAD(P)H absorbance, initial rates (CBADH): Unlike the parent enzyme CBADHWT, purified CBADHS was unable to oxidize isopropanol using oxidized NADP

B1: MsIRED (Myxococcus stipitatus DSM 14675; K37R/N32D/R33V/T34R) (protein)
chain: MKPTLTVIGAGRMGSALIKAFLQSGYTTTVWDVRKARSEPLAKLGAHLADTVRDAVKRSDIIVVNVLDYDTSDQLLRQDEVTRELRGKLLVQLTSGSPALAREQETWARQHGIDYLDGAIMATPDFIGQAECALLYSGSAALFEKHRAVLNVLGGATSHVGEDVGHASALDSALLFQMWGTLFGTLQALAISRAEGIPLEKTTAFIKLTEPVTQGAVADVLTRVQQNRLTADAQTLASLEAHNVAFQHLLALCEERNIHRGVADAMYSVIREAVKAGHGKDDFAILTRFLK
Km [5]: 19570 µM
kcat [5]: 1.3 s⁻¹

B2: MsIRED (Myxococcus stipitatus DSM 14675; K37R/L67I/N32E/R33Y/T34E/T71V) (protein)
chain: B1 chain with D32E, V33Y, R34E, L67I, T71V
Km [5]: 34060 µM
kcat [5]: 2.6862 s⁻¹

B3: EntNfsB (Enterobacter cloacae) (protein)
chain: T4 sequence (Q01234 1-217)
notes: full length, C-terminal His6 (pUC19), E. coli BL21(DE3), FMN holoprotein
Km [6]: 141 ± 22 µM
kcat [6]: 0.762 ± 0.0383 s⁻¹
